Source: article PMC11477482 (Molecules, 2024)
“Also recorded” adds a separate entry of the source.

Legend:
[1] = system: THP-1 cells (CD54 and CD86 expression); test: Skin sensitization potential, h-CLAT (CD54 and CD86 expression); format: cell-based, human; settings: THP-1, h-CLAT
Text: The cell culture of keratinocytes was detached with EDTA solution 1X (Sigma-Aldrich, St. Louis, MO, USA) when the cells reached 70–80% confluence in cell culture flasks. […] Macrophages were mechanically detached with a cell scraper and subcultured in (1:10) proportion of cellular suspension to a final volume of DMEM. […] Cells were subcultured every 2 or 3 days and maintained in culture for 2–3 months, according to ATCC® instructions.
Following OECD guidelines, researchers utilized the THP-1 human monocyte cell line as a substitute for dendritic cells (DCs) to assess skin sensitization potential. […] The cell pellet was further resuspended in 100 µL of PBS and analyzed by flow cytometry using a BD Accuri™ C6 cytometer (San Jose, CA, USA).
CD86 and CD54 levels were analyzed by flow cytometry using the acquisition channels FL1 and FL4. Mitochondrial O2^− production was measured by flow cytometry using the acquisition channel FL2. The relative fluorescence intensity (RFI) of CD86 and CD54 (THP-1 maturation assay) and MitoSOX (mitochondrial antioxidant activity) in the control and chemical-treated cells, based on the geometric mean fluorescence intensity (MFI), was calculated according to the following equation: RFI=MFI of chemical treated cells−MFI of chemical treated unstained cells/MFI of control treated cells−MFI of control unstained cells ×100

[2] = Stability at different temperatures, pH 5 (UV-vis absorbance); format: physicochemical; settings: for thermostability: pH 5, 4, 25, 40 and 60 °C
Procedure: Each compound solution (100 µM) buffered at pH 5 was prepared in triplicate. The other three samples were stored at 4 °C, 25 °C, 40 °C, and 60 °C, protected from light. Aliquots of 3.00 mL were transferred to quartz cuvettes at specific time points, and their absorbance was measured by UV–vis spectrophotometry. The blank of each pH corresponded to 3.00 mL of respective buffer. Stability was determined in terms of the change in the maximum peak absorbance.

[3] = Stability in metal solutions, pH 5 (UV-vis absorbance); format: physicochemical
Procedure: Five independent metal solutions (100 µM) were prepared in a buffer at pH 5, in triplicate. To the compound solutions, a volume of metal solutions was added to a final proportion of 1:1. The stability in the presence of different metals was analyzed at specific time points. The solutions were stored at room temperature in the dark. Aliquots of 3.00 mL were transferred to quartz cuvettes at specific time points to measure their absorbance using UV–vis spectrophotometry. Solutions of each metal were used as blanks.

[4] = Photostability under UVA + UVB radiation; format: physicochemical; settings: for variation in absorbance after irradiation: UVA + UVB, up to 15 min
Procedure: Three independent compound solutions (100 µM) were prepared and exposed to light. A volume of 50 mL of each sample replicate was exposed side-by-side under a UV lamp at a […] distance through an appropriate duration of time. These conditions were monitored using calibrated radiometers. The lamp used as light source for the photostability assay emitted an irradiance of 0.62 mW/cm^2 and 0.74 mW/cm^2 of UVA and UVB light, respectively. A UV lamp (Osram, Ultra-Vitalux, 300 W) was positioned at a height of 54 cm. The UV lamp was turned on 1 h before the experiment, and the UVA and UVB irradiances were measured, maintaining the controlled temperature. At the end of the exposure period, the absorbance spectrum was measured between 200 nm and 800 nm using a UV–vis spectrophotometer. The exposed samples were analyzed concomitantly with protected samples (dark controls). Photostability was evaluated by comparing the UV–vis spectra at each evaluation time for each antioxidant.

[5] = DSC thermal analysis and compatibility with excipients; format: physicochemical; settings: for compatibility with Carbopol 980 (CP) / compatibility with hydroxyethylcellulose (HEC) / compatibility with miglyol 812 (MIG) / compatibility with stearyl alcohol (SA) / compatibility with tocopherol (TP) / compatibility with EDTA: 1:1 (w/w) mixture; for Tonset / Tpeak / ΔH: compound alone, 10 °C/min, nitrogen
Procedure: A differential scanning calorimeter (DSC) 200F3 Maia (Netzsh-Gerätebau GmbH, Selb, Germany) was used for thermal analysis of the ingredients and mixtures. Typical excipients of topical formulations with different functions were selected for this study. The physical mixtures between compounds and the excipients were prepared in a ratio of 1:1 (w/w). Individual samples and the physical mixtures were weighed directly in the pierced DSC aluminum pan and scanned in the temperature range of 20–400 °C under nitrogen atmosphere with flow of 40 mL/min, with a heating rate of 10 °C/min. An empty aluminum pan was used as reference. The onset temperature and melting enthalpy (ΔH) were calculated using Proteus Analysis software (Version 6.1, NETZSCH-Gerätebau GmbH, Germany). The DSC cell was calibrated (sensitivity and temperature calibration) with Hg (m.p. −38.8 °C), In (m.p. 156.6 °C), Sn (m.p. 231.9 °C), Bi (m.p. 271.4 °C), Zn (m.p. 419.5 °C), and CsCl (m.p. 476.0 °C) as standards.

loss of absorbance ([3]; pH 5, Ca(II), Cu(II), and Fe(III), after one day)	variation in absorbance after irradiation [4]	compatibility with Carbopol 980 (CP) [5]	compatibility with miglyol 812 (MIG) [5]	compatibility with stearyl alcohol (SA) [5]	compatibility with tocopherol (TP) [5]	Tonset [5]	Tpeak [5]	ΔH [5]	absorbance normalized to t = 0 ([2]; pH 5, 60 °C, in 2 h)	absorbance normalized to t = 0 ([2]; pH 5, storage at 25 °C)	loss of absorbance ([3]; pH 5, Cu(II), Fe(II), and Fe(III))	increase of absorbance (hyperchromic effect) ([4]; after 5 min of UV exposure (UVA + UVB))	compatibility with EDTA [5]	loss of absorbance ([3]; pH 5, Fe(III) and Cu(II), at the end of 1 d)	Compound	skin sensitization potential [1]	thermostability [2]	compatibility with hydroxyethylcellulose (HEC) [5]
> 50%	practically imperceptible	Weak interferences	more compatible	Weak interferences	more compatible	195.0 °C	200.5 °C	223.1 J/g							O=C1OC(C(COS(=O)(=O)O)OS(=O)(=O)O)C(OS(=O)(=O)O)=C1OC1OC(COS(=O)(=O)O)C(OS(=O)(=O)O)C(OS(=O)(=O)O)C1OS(=O)(=O)O [AAGS, 2-O-α-D-glucopyranosyl-L-ascorbic acid persulfate]	non-sensitizing profile; also recorded: AA, AAG, and AAGS with non-sensitizer profile	highest level of stability among the compounds	more compatible; also recorded: favorable compatibility
		Weak interferences				192.9 °C	197.1 °C	-328.6 J/g	< 30%	< 50%	> 80%	~50%	Weak interferences		O=C1O[C@H]([C@@H](O)CO)C(O)=C1O [AA, Ascorbic acid]		decomposed with time at all the temperatures tested	
	slight variation in the absorbance		more compatible	Weak interferences	more compatible	173.0 °C	176.4 °C	-139.8 J/g					more compatible	< 30%	O=C1O[C@H]([C@@H](O)CO)C(O)=C1O[C@H]1O[C@H](CO)[C@@H](O)[C@H](O)[C@H]1O [AAG, 2-O-α-D-glucopyranosyl-L-ascorbic acid]	AA, AAG, and AAGS with non-sensitizer profile		Weak interferences
